PubChem BioAssay AID1963863 (Molecular Pharmacology Branch, DTP, NCI, 2024)

System: 931267-113-T-J1-PDC KRAS spheroid with HUVEC/MSC, viability
Test: Anticancer human tumor 931267-113-T-J1-PDC patient-derived colon adenocarcinoma cell line growth inhibition [KRAS2]
Details: for IC50: curve of first compound; for viability, T/C: stronger effect = lower value
In short: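 KRAS-mutant tumor cells were grown as spheroids with HUVEC endothelial cells and human MSCs as stroma. Targeted agents were tested alone and with KRAS pathway inhibitors. Doses started at or near clinical Cmax, or 10 microM, descending half-log.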

[1] = second compound 0.0316 µM, first compound 0.01 µM
[2] = second compound 0.0316 µM, first compound 0.0316 µM
[3] = second compound 0.0316 µM, first compound 0.1 µM
[4] = second compound 0.0316 µM, first compound 0.316 µM
[5] = second compound 0.0316 µM, first compound 1 µM
[6] = second compound 0.0316 µM, first compound 3.16 µM
[7] = second compound 0.1 µM, first compound 0.01 µM
[8] = second compound 0.1 µM, first compound 0.0316 µM
[9] = second compound 0.1 µM, first compound 0.1 µM
[10] = second compound 0.1 µM, first compound 0.316 µM
[11] = second compound 0.1 µM, first compound 1 µM
[12] = second compound 0.1 µM, first compound 3.16 µM
[13] = second compound 0.316 µM, first compound 0.01 µM
[14] = second compound 0.316 µM, first compound 0.0316 µM
[15] = second compound 0.316 µM, first compound 0.1 µM
[16] = second compound 0.316 µM, first compound 0.316 µM
[17] = second compound 0.316 µM, first compound 1 µM
[18] = second compound 0.316 µM, first compound 3.16 µM
[19] = second compound 1 µM, first compound 0.01 µM
[20] = second compound 1 µM, first compound 0.0316 µM
[21] = second compound 1 µM, first compound 0.1 µM
[22] = second compound 1 µM, first compound 0.316 µM
[23] = second compound 1 µM, first compound 1 µM
[24] = second compound 1 µM, first compound 3.16 µM
[25] = second compound 3.16 µM, first compound 0.01 µM
[26] = second compound 3.16 µM, first compound 0.0316 µM
[27] = second compound 3.16 µM, first compound 0.1 µM
[28] = second compound 3.16 µM, first compound 0.316 µM
[29] = second compound 3.16 µM, first compound 1 µM
[30] = second compound 3.16 µM, first compound 3.16 µM
[31] = second compound 0.0316 µM, first compound 10 µM
[32] = second compound 0.1 µM, first compound 10 µM
[33] = second compound 0.316 µM, first compound 10 µM
[34] = second compound 1 µM, first compound 10 µM
[35] = second compound 3.16 µM, first compound 10 µM
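Note: compound exposure lasted 7 days before the readout.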
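Throughout, for viability, T/C: 100% = DMSO vehicle control viability.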

Structure (SMILES): CC1COCCN1c1cc(-c2ccnn2C)c2ccnc(-c3ccn[nH]3)c2n1 (stereo not given) + C=CC(=O)N1CCN(c2nc(OCC3CCCN3C)nc3c2CCN(c2cccc4cccc(C)c24)C3)CC1CC#N
- IC50 (second compound 0.0316 µM): 44.1 nM
- IC50 (second compound 0.1 µM): 45.4 nM
- IC50 (second compound 0.316 µM): 39.8 nM
- IC50 (second compound 1 µM): 25.6 nM
- IC50 (second compound 3.16 µM): < 10 nM
- viability, T/C [1]: 90.9%
- viability, T/C [2]: 59%
- viability, T/C [3]: 27.8%
- viability, T/C [4]: 19.2%
- viability, T/C [5]: 18.1%
- viability, T/C [6]: 18%
- viability, T/C [7]: 122%
- viability, T/C [8]: 62.8%
- viability, T/C [9]: 22.2%
- viability, T/C [10]: 18.6%
- viability, T/C [11]: 21.6%
- viability, T/C [12]: 21.5%
- viability, T/C [13]: 75.6%
- viability, T/C [14]: 56.4%
- viability, T/C [15]: 24.7%
- viability, T/C [16]: 16.8%
- viability, T/C [17]: 18.9%
- viability, T/C [18]: 24.5%
- viability, T/C [19]: 88.9%
- viability, T/C [20]: 41.3%
- viability, T/C [21]: 12%
- viability, T/C [22]: 12.8%
- viability, T/C [23]: 21.3%
- viability, T/C [24]: 24.1%
- viability, T/C [25]: 0.25%
- viability, T/C [26]: 0.19%
- viability, T/C [27]: 0.38%
- viability, T/C [28]: 0.14%
- viability, T/C [29]: 0.14%
- viability, T/C [30]: 0.94%

Structure (SMILES): CCN1CCN(Cc2ccc(Nc3ncc(F)c(-c4cc(F)c5nc(C)n(C(C)C)c5c4)n3)nc2)CC1 + C=CC(=O)N1CCN(c2nc(OCC3CCCN3C)nc3c2CCN(c2cccc4cccc(C)c24)C3)CC1CC#N
- IC50 (second compound 0.0316 µM): > 1000 nM
- IC50 (second compound 0.1 µM): 549 nM
- IC50 (second compound 0.316 µM): > 1000 nM
- IC50 (second compound 1 µM): 734 nM
- IC50 (second compound 3.16 µM): < 3.16 nM
- viability, T/C (second compound 0.0316 µM, first compound 0.00316 µM): 108%
- viability, T/C [1]: 86%
- viability, T/C [2]: 70.7%
- viability, T/C [3]: 67.8%
- viability, T/C [4]: 65.7%
- viability, T/C [5]: 54%
- viability, T/C (second compound 0.1 µM, first compound 0.00316 µM): 83.8%
- viability, T/C [7]: 72.2%
- viability, T/C [8]: 68.2%
- viability, T/C [9]: 67.4%
- viability, T/C [10]: 61.8%
- viability, T/C [11]: 39.7%
- viability, T/C (second compound 0.316 µM, first compound 0.00316 µM): 93.7%
- viability, T/C [13]: 84.2%
- viability, T/C [14]: 64.3%
- viability, T/C [15]: 60%
- viability, T/C [16]: 64.6%
- viability, T/C [17]: 48.6%
- viability, T/C (second compound 1 µM, first compound 0.00316 µM): 73.8%
- viability, T/C [19]: 74.2%
- viability, T/C [20]: 77.3%
- viability, T/C [21]: 82.4%
- viability, T/C [22]: 61.2%
- viability, T/C [23]: 45.9%
- viability, T/C (second compound 3.16 µM, first compound 0.00316 µM): 0.66%
- viability, T/C [25]: 2.55%
- viability, T/C [26]: 0.2%
- viability, T/C [27]: 0.23%
- viability, T/C [28]: 0.3%
- viability, T/C [29]: 0.21%

Structure (SMILES): CCNC(=O)CC1N=C(c2ccc(Cl)cc2)c2cc(OC)ccc2-n2c(C)nnc21 (stereo not given) + C=CC(=O)N1CCN(c2nc(OCC3CCCN3C)nc3c2CCN(c2cccc4cccc(C)c24)C3)CC1CC#N
- IC50 (second compound 0.0316 µM): 3970 nM
- IC50 (second compound 0.1 µM): 2560 nM
- IC50 (second compound 0.316 µM): 1430 nM
- IC50 (second compound 1 µM): 1030 nM
- IC50 (second compound 3.16 µM): < 31.6 nM
- viability, T/C [2]: 92%
- viability, T/C [3]: 80.3%
- viability, T/C [4]: 80.2%
- viability, T/C [5]: 51.9%
- viability, T/C [6]: 61%
- viability, T/C [31]: 38.1%
- viability, T/C [8]: 92.5%
- viability, T/C [9]: 81.4%
- viability, T/C [10]: 70.1%
- viability, T/C [11]: 60.6%
- viability, T/C [12]: 45.4%
- viability, T/C [32]: 41.6%
- viability, T/C [14]: 72.4%
- viability, T/C [15]: 74.7%
- viability, T/C [16]: 66.5%
- viability, T/C [17]: 52.9%
- viability, T/C [18]: 43.7%
- viability, T/C [33]: 38.9%
- viability, T/C [20]: 82.1%
- viability, T/C [21]: 69.1%
- viability, T/C [22]: 61.1%
- viability, T/C [23]: 51.1%
- viability, T/C [24]: 39.6%
- viability, T/C [34]: 31.5%
- viability, T/C [26]: 0.31%
- viability, T/C [27]: 0.3%
- viability, T/C [28]: 0.26%
- viability, T/C [29]: 0.17%
- viability, T/C [30]: 0.16%
- viability, T/C [35]: 0.17%

Structure (SMILES): Cn1nccc1Nc1nccc(-c2cc3c(s2)C(C)(C)N(CCN2CCOCC2)C3=O)n1 + C=CC(=O)N1CCN(c2nc(OCC3CCCN3C)nc3c2CCN(c2cccc4cccc(C)c24)C3)CC1CC#N
- IC50 (second compound 0.0316 µM): 424 nM
- IC50 (second compound 0.1 µM): 526 nM
- IC50 (second compound 0.316 µM): 400 nM
- IC50 (second compound 1 µM): 365 nM
- IC50 (second compound 3.16 µM): < 31.6 nM
- viability, T/C [2]: 118%
- viability, T/C [3]: 97.7%
- viability, T/C [4]: 59.8%
- viability, T/C [5]: 23%
- viability, T/C [6]: 7.09%
- viability, T/C [31]: 4.66%
- viability, T/C [8]: 88.9%
- viability, T/C [9]: 92%
- viability, T/C [10]: 57.8%
- viability, T/C [11]: 37.8%
- viability, T/C [12]: 4.83%
- viability, T/C [32]: 4.43%
- viability, T/C [14]: 107%
- viability, T/C [15]: 91%
- viability, T/C [16]: 55.7%
- viability, T/C [17]: 25.5%
- viability, T/C [18]: 6.39%
- viability, T/C [33]: 4.33%
- viability, T/C [20]: 88.5%
- viability, T/C [21]: 65.9%
- viability, T/C [22]: 59.7%
- viability, T/C [23]: 23.2%
- viability, T/C [24]: 3.82%
- viability, T/C [34]: 2.07%
- viability, T/C [26]: 0.35%
- viability, T/C [27]: 0.25%
- viability, T/C [28]: 0.29%
- viability, T/C [29]: 0.14%
- viability, T/C [30]: 0.14%
- viability, T/C [35]: 0.22%
